Reference: US20230265481A1, “METHOD FOR MEASURING THE PROTEASE ACTIVITY OF C3 AND C5 CONVERTASE OF THE ALTERNATIVE COMPLEMENT PATHWAY” (Alexion Pharmaceuticals, Inc., priority 2015, published 2023)

What was measured:
Factor D = biological target: T1, Factor D (Homo sapiens, UniProt P00746); assay: BLI biosensor assay of Factor D cleavage of Factor B, anti-Bb antibody binding; format: biochemical
T1 construct: purchased Comptech (Tyler TX)

C5 convertase = C5 convertase activity on bio-C3b streptavidin-coated spheres, C5a measured with MSD (ECL) assay; format: biochemical; conditions: for ECL signal (amount of C5a produced by C5 convertase): C5 100 nM, 60 minutes
Method: The bio-C3b binding to streptavidin was performed in a 2.0 ml micro-centrifuge tube. Two hundred and forty […] of Spherotech beads, […] diameter, streptavidin coated spheres were first washed by centrifugation with 300 μL of 10 mM Tris, pH 8, and then resuspended in 200 μL of 10 mM Tris, pH 8. The spheres were incubated with bio-C3b or C3b at a concentration of 320 nM. Spheres were suspended by gentle shaking at 1350 RPM for 20 minutes at room temperature, and collected by centrifugation at 16 RCF for 10 minutes. The residual supernatant was removed and the beads are then washed to remove residual unbound bio-C3b.
C5 convertase was formed on the spheres by incubating the bio-C3b spheres with a Convertase Solution that included components of the AP, a divalent cation and buffer. The Convertase Solution consisted of Factor D, (10 nM), Factor B (400 nM), and NiCl2 (200 μM) in 10 mM Tris, pH 8.0. The spheres were suspended by gentle shaking at 1350 RPM for 20 minutes at 37° C. The spheres were centrifuged at 16×g (RCF) for 10 minutes, the supernatant is removed, and the spheres are resuspended in 1.2 ml of 10 mM Tris pH 8, 1 mM EDTA to a final concentration of 200 μg/ml.
Formation of C5a was accomplished by incubating C5, and the spheres in a Reaction Solution that included a divalent cation. The Reaction Solution was prepared by transferring to a microplate well: (i) […] of spheres with C5 convertase in 10 μl of the Convertase Solution; (ii) […] of a 500 μM NiCl2 solution; and (iii) […] of a 250 nM solution of C5 (5 pmoles). […]
Following the incubation, the reaction was stopped by adding 10 μL of a 500 mM EDTA in 10 mM Tris, pH=8.0. (Total Volume=60 μl)
The amount of C5a in the Reaction Solution was measured with an MSD assay, similar to an ELISA. The neo-epitope anti-C5a antibody, BNJ383, captured soluble C5a, binding it to a well in a microplate. BNJN383 has a high affinity for C5a but a low affinity for C5. The detection reagent was a mouse anti-C5a antibody that binds the C5a captured on the plate, and a SULFO-TAG™ modified anti-mouse secondary antibody that bound the mouse antibody, and generated an ECL signal.
To wells of a high binding 96-well microplate (MSD Catalog No. L15XB-3) was added BNJ383 (0.3 pmoles,)[…]/mL in 25 μL of a carbonate-bicarbonate buffer at pH 9.4. The microplate was sealed and incubated at 37° C. for 60 minutes. […]
The wells were sealed with a foil seal and incubated in the dark for 30 minutes. […] One hundred and fifty μL of 2X MSD Read Buffer containing tripropylamine as an electron carrier was added to the wells using a negative pipetting technique. The microplate was read on an MSD imager to measure the ECL signal generated by the SULFO-TAG™ affixed to the goat secondary antibody. […]

T1 sequence (P00746 26-253): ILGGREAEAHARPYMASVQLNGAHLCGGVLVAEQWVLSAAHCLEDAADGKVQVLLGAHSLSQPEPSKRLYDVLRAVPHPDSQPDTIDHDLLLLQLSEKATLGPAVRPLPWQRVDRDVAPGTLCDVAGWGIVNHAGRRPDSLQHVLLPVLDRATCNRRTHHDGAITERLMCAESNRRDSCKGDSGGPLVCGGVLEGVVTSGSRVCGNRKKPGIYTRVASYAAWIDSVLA

Compound	Effect on Factor D activity (Factor D; DCIC 23 μM and 35 μM)	Effect on Factor D activity (Factor D; DCIC 178 μM, 267 μM and 400 μM)	Effect on convertase activity (C5 convertase; OmCI 50 nM)	ECL signal (amount of C5a produced by C5 convertase) (C5 convertase; OmCI 50 nM)	drop of ECL signal (C5 convertase; OmCI 100 nM) [fold]	ECL signal (amount of C5a produced by C5 convertase) (C5 convertase; OmCI 100 nM)
O=c1oc(Cl)c(Cl)c2ccccc12 [DCIC, 3,4-Dichloroisocoumarin]	minimal effect	maximally inhibited	–	–	–	–
OmCI: tick saliva complement inhibitor, a C5 binding protein that reduces access of the C5 convertase to the C5 cleavage site	–	–	essentially no effect	40,000	8	5000
